Columns and labels:
Format in all cases: in vitro ADME
[1] = Protein binding rate in plasma (equilibrium dialysis), human; settings: 4 h dialysis
Experimental: (§1) The protein binding rates of the compound disclosed herein in plasma of human, CD-1 mice and SD rats were determined. 796 μL of blank plasma was taken from human, CD-1 mice or SD rats, and 4 μL of test compound working solution (400 μM) or warfarin working solution (400 μM) was added to achieve a final concentration of 2 μM of both the test compound and the warfarin in the plasma sample. The samples were mixed well. The final concentration of organic phase DMSO was 0.5%; 50 μL of test compound and warfarin plasma sample was pipetted into a sample receiving plate (in triplicate), and a corresponding volume of blank plasma or buffer was immediately added such that the final volume in each sample well was 100 μL. The volume ratio of plasma to dialysis buffer was 1:1. […] All samples were subjected to LC/MS analysis after protein precipitation, and the protein binding rates and the recovery rates were calculated by the following formulas: protein unbinding rate (%)=100× drug concentration passing through dialysis membrane/drug concentration not passing through dialysate; protein binding rate (%)=100−protein unbinding rate (%); recovery rate (%)=100×(drug concentration passing through dialysis membrane+drug concentration not passing through dialysate)/total drug concentration before dialysis.

[2] = Protein binding rate in plasma (equilibrium dialysis), SD rat; settings: 4 h dialysis
Experimental: as §1

CYP2C9 = CYP2C9 (Homo sapiens (Human), UniProt P11712); test: Inhibition against cytochrome P450 isoenzymes, CYP2C9; settings: human liver microsomes
Chain of CYP2C9 (P11712 whole entry): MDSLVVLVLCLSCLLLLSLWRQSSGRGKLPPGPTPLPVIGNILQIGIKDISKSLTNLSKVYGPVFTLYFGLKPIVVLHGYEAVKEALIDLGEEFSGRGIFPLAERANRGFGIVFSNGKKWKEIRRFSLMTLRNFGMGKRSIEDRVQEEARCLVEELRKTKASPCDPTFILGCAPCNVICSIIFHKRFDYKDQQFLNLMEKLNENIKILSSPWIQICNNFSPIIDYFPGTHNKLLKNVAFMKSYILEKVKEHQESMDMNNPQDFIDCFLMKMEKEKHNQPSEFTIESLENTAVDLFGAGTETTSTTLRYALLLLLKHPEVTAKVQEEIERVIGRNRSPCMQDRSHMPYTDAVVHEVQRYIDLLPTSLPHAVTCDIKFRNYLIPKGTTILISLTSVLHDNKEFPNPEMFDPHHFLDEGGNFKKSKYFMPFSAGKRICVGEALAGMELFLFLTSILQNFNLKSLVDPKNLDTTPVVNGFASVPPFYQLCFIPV
Experimental: (§2) The inhibition of the test compound against different subtypes of the human cytochrome P450 isoenzyme was determined. The test compound, a standard inhibitor (100×final concentration) and a mixed substrate working solution were prepared; the microsomes frozen in a refrigerator at −80° C. were taken out and thawed. […]

CYP2D6 = CYP2D6 (Homo sapiens (Human), UniProt P10635); test: Inhibition against cytochrome P450 isoenzymes, CYP2D6; settings: human liver microsomes
Chain of CYP2D6 (P10635 whole entry): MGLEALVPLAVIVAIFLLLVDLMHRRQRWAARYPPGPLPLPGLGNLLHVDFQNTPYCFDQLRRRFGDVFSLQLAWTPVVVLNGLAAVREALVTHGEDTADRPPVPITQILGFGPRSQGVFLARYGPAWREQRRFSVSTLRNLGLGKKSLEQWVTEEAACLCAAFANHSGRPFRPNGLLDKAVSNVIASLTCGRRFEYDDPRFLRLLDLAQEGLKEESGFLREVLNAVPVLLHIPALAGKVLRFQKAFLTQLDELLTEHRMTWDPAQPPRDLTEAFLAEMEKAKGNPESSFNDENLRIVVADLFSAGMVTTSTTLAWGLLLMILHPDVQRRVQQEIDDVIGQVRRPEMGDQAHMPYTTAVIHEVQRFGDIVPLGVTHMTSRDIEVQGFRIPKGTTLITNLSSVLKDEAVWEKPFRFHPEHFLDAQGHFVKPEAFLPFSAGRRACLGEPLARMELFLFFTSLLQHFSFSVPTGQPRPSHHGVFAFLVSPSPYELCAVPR
Experimental: as §2

C[C@]1(c2ccc(-c3[nH]c4cc(F)cc5c4c3CONC5=O)cc2)CCCN1 [Compound 1]
fraction unbound at 4 h, 2 μM [1]: 0.149
fraction unbound at 4 h, 2 μM [2]: 0.077
IC50 (CYP2C9): > 50 µM
IC50 (CYP2D6): 11.6 µM

From patent US20230331739A1, “INDOLO HEPTAMYL OXIME ANALOG CRYSTAL AS PARP INHIBITOR AND METHOD FOR PREPARING SAME” (CHIA TAI TIANQING PHARMACEUTICAL GROUP CO., LTD., priority 2020, published 2023)
